Results as given in the NIST ThermoML archive (doi:10.1016/j.jct.2009.03.009).
Numbers after ± are expanded uncertainties.

Key:
[1] = xn = mol fraction of the nth substance listed; conditions: 313.15 K, 101 kPa, Liquid; for speed of sound: Sing-around technique in a fixed-path interferometer; for mass density: Vibrating tube method
[2] = refractive index (Na D-line) (dimensionless); xn = mol fraction of the nth substance listed; conditions: 313.15 K, 101 kPa, Liquid, Standard Abbe refractometry

CCCCCCCCC [nonane] + Cc1ccccc1
Conditions	mass density, [1] [kg/m3]	refractive index, [2]	speed of sound, [1] [m/s]
x1 = 0.1045	823.2 ± 0.2	1.4692 ± 0.00068	1217.6 ± 2.2
x1 = 0.2019	802.9 ± 0.2	1.45691 ± 0.00068	1200.3 ± 2.2
x1 = 0.3002	785 ± 0.3	1.44571 ± 0.00068	1187 ± 2.2
x1 = 0.4021	768.7 ± 0.3	1.43571 ± 0.00068	1176 ± 2.2
x1 = 0.502	754.5 ± 0.3	1.42674 ± 0.00069	1167.7 ± 2.2
x1 = 0.601	741.9 ± 0.3	1.41934 ± 0.00069	1161.1 ± 2.2
x1 = 0.696	731 ± 0.3	1.41289 ± 0.00069	1156.2 ± 2.3
x1 = 0.8032	719.9 ± 0.3	1.40639 ± 0.0007	1151.8 ± 2.3
x1 = 0.9022	710.6 ± 0.3	1.40097 ± 0.0007	1148.9 ± 2.3
x1 = 0.9501	706.4 ± 0.3	1.3985 ± 0.0007	1147.7 ± 2.3
x1 = 1	702.2 ± 0.3	1.39609 ± 0.0007	1146.4 ± 2.4

CCCCCC [hexane] + c1ccccc1
x1 = 1
Conditions	mass density [kg/m3]	refractive index	speed of sound [m/s]
[1]	641.4 ± 0.3	–	1010.3 ± 2.3
[2]	–	1.36411 ± 0.0007	–

c1ccccc1 [benzene] + CCCCCCCC
x2 = 0
Conditions	mass density [kg/m3]	refractive index	speed of sound [m/s]
[1]	857.4 ± 0.2	–	1230 ± 2.2
[2]	–	1.48752 ± 0.00068	–

CCc1ccccc1 [ethylbenzene] + CCCCCCC
Conditions	mass density, [1] [kg/m3]	refractive index, [2]	speed of sound, [1] [m/s]
x2 = 0	849.2 ± 0.2	1.48426 ± 0.00068	1256.9 ± 2.2
x2 = 0.0494	838.5 ± 0.2	1.47846 ± 0.00068	1243.9 ± 2.2
x2 = 0.1039	826.9 ± 0.2	1.47131 ± 0.00068	1229.8 ± 2.2
x2 = 0.2025	806.7 ± 0.2	1.4594 ± 0.00068	1205.9 ± 2.2
x2 = 0.3022	786.8 ± 0.2	1.44788 ± 0.00068	1183.7 ± 2.2
x2 = 0.4038	767.2 ± 0.3	1.43628 ± 0.00068	1162.6 ± 2.2
x2 = 0.5006	749.3 ± 0.3	1.42574 ± 0.00068	1144.6 ± 2.2
x2 = 0.6003	731.6 ± 0.3	1.41536 ± 0.00068	1126.9 ± 2.2
x2 = 0.7014	714.3 ± 0.3	1.40513 ± 0.00068	1109.8 ± 2.2
x2 = 0.8048	697.3 ± 0.3	1.39516 ± 0.00068	1094.8 ± 2.2
x2 = 0.9028	681.7 ± 0.3	1.38607 ± 0.00068	1079.9 ± 2.2

c1ccccc1 [benzene] + CCCCCCCCC
x2 = 0
Conditions	mass density [kg/m3]	refractive index	speed of sound [m/s]
[1]	857.4 ± 0.2	–	1230 ± 2.2
[2]	–	1.48752 ± 0.00068	–

CCCCCCC [heptane] + CCc1ccccc1
x1 = 1
Conditions	mass density [kg/m3]	refractive index	speed of sound [m/s]
[1]	666.6 ± 0.3	–	1066.5 ± 2.2
[2]	–	1.37737 ± 0.00068	–

CCc1ccccc1 [ethylbenzene] + CCCCCCCCC
x2 = 0
Conditions	mass density [kg/m3]	refractive index	speed of sound [m/s]
[1]	849.2 ± 0.2	–	1256.9 ± 2.2
[2]	–	1.48426 ± 0.00068	–

CCCCCC [hexane] + CCc1ccccc1
x1 = 1
Conditions	mass density [kg/m3]	refractive index	speed of sound [m/s]
[1]	641.4 ± 0.3	–	1010.3 ± 2.3
[2]	–	1.36411 ± 0.0007	–

CCCCCCCCC [nonane] + CCc1ccccc1
Conditions	mass density, [1] [kg/m3]	refractive index, [2]	speed of sound, [1] [m/s]
x1 = 0.0527	837.7 ± 0.2	1.47759 ± 0.00068	1245.4 ± 2.2
x1 = 0.1043	827.1 ± 0.2	1.47111 ± 0.00068	1234.9 ± 2.2
x1 = 0.2032	808.1 ± 0.2	1.45968 ± 0.00068	1217.6 ± 2.2
x1 = 0.3009	791 ± 0.3	1.44884 ± 0.00068	1203.2 ± 2.2
x1 = 0.4018	774.9 ± 0.3	1.43899 ± 0.00068	1190.7 ± 2.2
x1 = 0.5009	760.3 ± 0.3	1.43055 ± 0.00069	1180.1 ± 2.2
x1 = 0.6003	746.9 ± 0.3	1.42241 ± 0.00069	1171.2 ± 2.2
x1 = 0.7012	734.4 ± 0.3	1.41482 ± 0.00069	1163.5 ± 2.3
x1 = 0.8044	722.4 ± 0.3	1.40792 ± 0.0007	1156.7 ± 2.3
x1 = 0.9026	712 ± 0.3	1.40178 ± 0.0007	1151.1 ± 2.3
x1 = 0.9519	707 ± 0.3	1.39883 ± 0.0007	1148.8 ± 2.3
x1 = 1	702.2 ± 0.3	1.39609 ± 0.0007	1146.4 ± 2.4
